Counter-ions that a name gives are not always drawn.
Assays:
[1] = Solubility study of tofacitinib citrate in various solvents (HPLC); assay type: physicochemical; details: for solubility: thermodynamic from solid
Description: A solubility study was conducted in the course of formulation development. The suspension was stirred overnight and filtered through 0.22 μm filter. The filtrate was diluted into suitable concentration.

[2] = Compatibility study of dissolved tofacitinib citrate with excipients, 60° C. seven days, HPLC; assay type: physicochemical; details: 1 Week
Description: The total degradation products in the mixtures were further analyzed by HPLC.

## C[C@@H]1CCN(C(=O)CC#N)C[C@@H]1N(C)c1ncnc2[nH]ccc12 [Tofacitinib Citrate, 3-((3R,4R)-4-methyl-3-[methyl-(7H-pyrrolo[2,3-d]pyrimidin-4-yl)-amino]-piperidin-1-yl)-3-oxopropionitrile]
[1]; 0.1N HCl
  Solubility Descriptive Term: Sparingly
[1]; 0.1N HCl, simulated gastric fluid
  solubility: 23900 µg/mL
[1]; Dimethyl sulfoxide (DMSO)
  Solubility Descriptive Term: Freely soluble
[1]; Dimethyl sulfoxide (DMSO), listed as tofacitinib citrate
  Solubility Descriptive Term: freely soluble
[1]; Ethanol
  Solubility Descriptive Term: Very slightly
[1]; Ethanol, listed as tofacitinib citrate
  Solubility Descriptive Term: very slightly soluble
[1]; H2O
  Solubility Descriptive Term: Slightly soluble
[1]; H2O, listed as tofacitinib citrate
  Solubility Descriptive Term: slightly soluble
[1]; Propylene Glycol (PG)
  Solubility Descriptive Term: Slightly soluble
[1]; Propylene Glycol (PG), listed as tofacitinib citrate
  Solubility Descriptive Term: slightly soluble
[1]; aqueous buffer, pH 3.0, 50 mM Citrate Buffer
  solubility: 600 µg/mL
[1]; aqueous buffer, pH 4.5, 50 mM Acetate Buffer
  solubility: 1810 µg/mL
[1]; aqueous buffer, pH 6.8, 50 mM Phosphate Buffer
  solubility: 120 µg/mL
[1]; aqueous buffer, pH 7.5, 50 mM Phosphate Buffer
  solubility: 120 µg/mL
[1]; aqueous buffer, pH 9.0, 50 mM Phosphate Buffer
  solubility: 120 µg/mL
[1]; aqueous with cosolvent or surfactant or cyclodextrin, pH 4.5, 50 mM Acetate Buffer/PEG300 = 70/30
  solubility: 3160 µg/mL
[1]; aqueous with cosolvent or surfactant or cyclodextrin, pH 7.5, 50 mM Phosphate Buffer/PEG300 = 70/30
  solubility: 1590 µg/mL
[1]; dimethyl sulfoxide (DMSO), organic solvent or mixture
  solubility: > 100000 µg/mL
[1]; ethanol, organic solvent or mixture
  solubility: 480 µg/mL
[1]; pH 3.0, 50 mM Citrate Buffer
  Solubility Descriptive Term: Very slightly
[1]; pH 4.5, 50 mM Acetate Buffer
  Solubility Descriptive Term: Slightly soluble
[1]; pH 4.5, 50 mM Acetate Buffer/PEG300 = 70/30
  Solubility Descriptive Term: Slightly soluble
[1]; pH 6.8, 50 mM Phosphate Buffer
  Solubility Descriptive Term: Very slightly
[1]; pH 7.5, 50 mM Phosphate Buffer
  Solubility Descriptive Term: Very slightly
[1]; pH 7.5, 50 mM Phosphate Buffer/PEG300 = 70/30
  Solubility Descriptive Term: Slightly soluble
[1]; pH 9.0, 50 mM Phosphate Buffer
  Solubility Descriptive Term: Very slightly
[1]; propylene glycol (PG), organic solvent or mixture
  solubility: 1920 µg/mL
[1]; water, H2O
  solubility: 3000 µg/mL
[2]
  Total Degradation Products: 0.06%
